Measurements as given in patent publication US20100311714A1, “1H-IMIDAZO[4,5-c]QUINOLINONE COMPOUNDS” (priority 2009, published 2010).
Where two headings read alike, the source gives them in different places.

Target: T1, PI3K alfa (Homo sapiens, UniProt P42336)
T1 construct: His tag (C); made in house; host or cells: baculovirus BV1075; Tn5 (Trichoplusia ni) or TiniPro insect cells
Experiment: PI3K alpha kinase assay (Kinase-Glo luminescence)
Type: biochemical
Procedure, shortened: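 IC50 values come from a four-parameter logistic fit of percent inhibition at eight concentrations, typically 10 to 0.003 μM. Recombinant PI3Kα at 10 nM turned over 1 μM ATP with 10 μg/mL PI for 60 min at room temperature, and residual ATP was measured by Kinase-Glo.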

T1 sequence (P42336 with tags, fused parts or gaps limits assumed): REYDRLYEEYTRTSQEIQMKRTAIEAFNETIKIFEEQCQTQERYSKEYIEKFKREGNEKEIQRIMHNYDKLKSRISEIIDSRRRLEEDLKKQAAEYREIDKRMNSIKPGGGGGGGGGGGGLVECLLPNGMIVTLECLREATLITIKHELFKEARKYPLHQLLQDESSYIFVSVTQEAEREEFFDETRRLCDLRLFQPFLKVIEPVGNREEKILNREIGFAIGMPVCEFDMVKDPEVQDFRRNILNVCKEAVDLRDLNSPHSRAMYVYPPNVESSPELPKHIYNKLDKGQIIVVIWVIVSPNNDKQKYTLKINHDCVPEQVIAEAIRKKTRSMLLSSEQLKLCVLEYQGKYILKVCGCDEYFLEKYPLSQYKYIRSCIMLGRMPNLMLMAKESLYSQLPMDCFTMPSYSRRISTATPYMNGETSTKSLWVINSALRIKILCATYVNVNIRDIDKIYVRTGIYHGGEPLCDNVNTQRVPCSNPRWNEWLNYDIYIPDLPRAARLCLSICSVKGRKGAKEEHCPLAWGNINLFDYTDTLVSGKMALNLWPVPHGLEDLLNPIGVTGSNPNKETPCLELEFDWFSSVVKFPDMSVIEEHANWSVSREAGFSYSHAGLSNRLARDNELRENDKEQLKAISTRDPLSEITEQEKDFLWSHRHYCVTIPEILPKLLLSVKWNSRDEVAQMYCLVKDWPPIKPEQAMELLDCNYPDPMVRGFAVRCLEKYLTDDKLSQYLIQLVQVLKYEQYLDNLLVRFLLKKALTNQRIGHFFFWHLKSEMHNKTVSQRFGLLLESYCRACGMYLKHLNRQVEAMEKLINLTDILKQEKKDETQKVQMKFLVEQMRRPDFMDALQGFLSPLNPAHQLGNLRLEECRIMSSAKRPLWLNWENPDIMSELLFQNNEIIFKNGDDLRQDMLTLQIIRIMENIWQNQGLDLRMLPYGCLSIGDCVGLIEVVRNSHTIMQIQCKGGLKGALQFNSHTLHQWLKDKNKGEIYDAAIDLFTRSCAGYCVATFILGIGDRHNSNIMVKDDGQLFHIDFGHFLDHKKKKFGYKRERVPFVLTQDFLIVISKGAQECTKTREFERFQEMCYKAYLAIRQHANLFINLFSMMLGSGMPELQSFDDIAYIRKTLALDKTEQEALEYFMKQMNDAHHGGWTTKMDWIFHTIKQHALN

| SMILES | IC50 (read-out: EPK_PI3Kalfa/IC50) [nM] | IC50 (read-out: PI3Kalfa/IC50) [nM] |
| --- | --- | --- |
| CNc1ncc(-c2ccc3ncc4c(c3c2)n(-c2ccc(OCCOC)nc2C)c(=O)n4C)cn1 [Example 13.5, 1-[6-(2-Methoxy-ethoxy)-2-methyl-pyridin-3-yl]-3-methyl-8-(2-methylamino-pyrimidin-5-yl)-1,3-dihydro-imidazo[4,5-c]quinolin-2-one] | 43 | – |
| CCNc1cc(-c2ccc3ncc4c(c3c2)n(-c2ccc(N(C)CCOC)nc2C)c(=O)n4C)cnc1C [Example 15.6, 8-(5-Ethylamino-6-methyl-pyridin-3-yl)-1-{6-[(2-methoxy-ethyl)-methyl-amino]-2-methyl-pyridin-3-yl}-3-methyl-1,3-dihydro-imidazo[4,5-c]quinolin-2-one] | 12 | – |
| Cc1ccc(-n2c(=O)n(C)c3cnc4ccc(-c5cncc(NC(C)C)c5)cc4c32)c(C)n1 [Example 14.8, 1-(2,6-Dimethyl-pyridin-3-yl)-8-(5-isopropylamino-pyridin-3-yl)-3-methyl-1,3-dihydro-imidazo[4,5-c]quinolin-2-one] | 37 | – |
| Cc1nc(N(C)C)ccc1-n1c(=O)n(C)c2cnc3ccc(-c4cncc(N)c4)cc3c21 [Example 19.5, 8-(5-Amino-pyridin-3-yl)-1-(6-dimethylamino-2-methyl-pyridin-3-yl)-3-methyl-1,3-dihydro-imidazo[4,5-c]quinolin-2-one] | 65 | – |
| COCc1ncc(-c2ccc3ncc4c(c3c2)n(-c2ccc(OC)nc2OC)c(=O)n4C)cc1OC [Example 8.12, 1-(2,6-Dimethoxy-pyridin-3-yl)-8-(5-methoxy-6-methoxymethyl-pyridin-3-yl)-3-methyl-1,3-dihydro-imidazo[4,5-c]quinolin-2-one] | 41 | – |
| Cc1nc(F)ccc1-n1c(=O)n(C)c2cnc3ccc(-c4cncc(N)c4)cc3c21 [Example 7.16, 8-(5-Amino-pyridin-3-yl)-1-(6-fluoro-2-methyl-pyridin-3-yl)-3-methyl-1,3-dihydro-imidazo[4,5-c]quinolin-2-one] | 101 | – |
| COc1ccc(-n2c(=O)n(C)c3cnc4ccc(-c5cnc(N)c(C(F)(F)F)c5)cc4c32)c(OC)n1 [Example 8.1, 8-(6-Amino-5-trifluoromethyl-pyridin-3-yl)-1-(2,6-dimethoxy-pyridin-3-yl)-3-methyl-1,3-dihydro-imidazo[4,5-c]quinolin-2-one] | – | 11 |
| CNc1ncc(-c2ccc3ncc4c(c3c2)n(-c2ccc(F)nc2C)c(=O)n4C)cc1C(F)(F)F [Example 7.13, 1-(6-Fluoro-2-methyl-pyridin-3-yl)-3-methyl-8-(6-methylamino-5-trifluoromethyl-pyridin-3-yl)-1,3-dihydro-imidazo[4,5-c]quinolin-2-one] | 11 | – |
| CCNc1cc(-c2ccc3ncc4c(c3c2)n(-c2ccc(OC)nc2Cl)c(=O)n4C)cnc1C [Example 18.1, 1-(2-Chloro-6-methoxy-pyridin-3-yl)-8-(5-ethylamino-6-methyl-pyridin-3-yl)-3-methyl-1,3-dihydro-imidazo[4,5-c]quinolin-2-one] | 40 | – |
| COc1ncccc1-n1c(=O)n(C)c2cnc3ccc(-c4ccc(F)nc4)cc3c21 [Example 1.8, 8-(6-Fluoro-pyridin-3-yl)-1-(2-methoxy-pyridin-3-yl)-3-methyl-1,3-dihydro-imidazo[4,5-c]quinolin-2-one] | – | 58 |
| COCCN(C)c1ccc(-n2c(=O)n(C)c3cnc4ccc(-c5cnc(N(C)C)nc5)cc4c32)c(C)n1 [Example 15.5, 8-(2-Dimethylamino-pyrimidin-5-yl)-1-{6-[(2-methoxy-ethyl)-methyl-amino]-2-methyl-pyridin-3-yl}-3-methyl-1,3-dihydro-imidazo[4,5-c]quinolin-2-one] | 31 | – |
| Cc1ccc(-n2c(=O)n(C)c3cnc4ccc(-c5cnc(N)c(C(F)(F)F)c5)cc4c32)c(C)n1 [Example 14.5, 8-(6-Amino-5-trifluoromethyl-pyridin-3-yl)-1-(2,6-dimethyl-pyridin-3-yl)-3-methyl-1,3-dihydro-imidazo[4,5-c]quinolin-2-one] | 5 | – |
| COc1ncccc1-n1c(=O)n(C)c2cnc3ccc(-c4cnc(N(C)C)nc4)cc3c21 [Example 1.9, 8-(2-Dimethylamino-pyrimidin-5-yl)-1-(2-methoxy-pyridin-3-yl)-3-methyl-1,3-dihydro-imidazo[4,5-c]quinolin-2-one] | – | 71 |
| COCCOc1cc(-c2ccc3ncc4c(c3c2)n(-c2ccc(OC)nc2OC)c(=O)n4C)cnc1C [Example 8.9, 1-(2,6-Dimethoxy-pyridin-3-yl)-8-[5-(2-methoxy-ethoxy)-6-methyl-pyridin-3-yl]-3-methyl-1,3-dihydro-imidazo[4,5-c]quinolin-2-one] | 11 | – |
| COCCOc1ccc(-n2c(=O)n(C)c3cnc4ccc(-c5cncc(N6CCC6)c5)cc4c32)c(C)n1 [Example 22.2, 8-(5-Azetidin-1-yl-pyridin-3-yl)-1-[6-(2-methoxy-ethoxy)-2-methyl-pyridin-3-yl]-3-methyl-1,3-dihydro-imidazo[4,5-c]quinolin-2-one] | 171 | – |
| COCCN(C)c1ccc(-n2c(=O)n(C)c3cnc4ccc(-c5cnc(CO)c(OC)c5)cc4c32)c(C)n1 [Example 15.9, 8-(6-Hydroxymethyl-5-methoxy-pyridin-3-yl)-1-{6-[(2-methoxy-ethyl)-methyl-amino]-2-methyl-pyridin-3-yl}-3-methyl-1,3-dihydro-imidazo[4,5-c]quinolin-2-one] | 23 | – |
| CCNc1cc(-c2ccc3ncc4c(c3c2)n(-c2ccc(OC)nc2C)c(=O)n4C)cnc1C [Example 11.7, 8-(5-Ethylamino-6-methyl-pyridin-3-yl)-1-(6-methoxy-2-methyl-pyridin-3-yl)-3-methyl-1,3-dihydro-imidazo[4,5-c]quinolin-2-one] | < 3 | – |
| CCNc1cc(-c2ccc3ncc4c(c3c2)n(-c2ccc(N3CC(F)(F)C3)nc2C)c(=O)n4C)cnc1CO [Example 24.3, 1-[6-(3,3-Difluoro-azetidin-1-yl)-2-methyl-pyridin-3-yl]-8-(5-ethylamino-6-hydroxymethyl-pyridin-3-yl)-3-methyl-1,3-dihydro-imidazo[4,5-c]quinolin-2-one] | 11 | – |
| CNc1ncc(-c2ccc3ncc4c(c3c2)n(-c2ccc(N(C)CCOC)nc2C)c(=O)n4C)cn1 [Example 15.2, 1-{6-[(2-Methoxy-ethyl)-methyl-amino]-2-methyl-pyridin-3-yl}-3-methyl-8-(2-methylamino-pyrimidin-5-yl)-1,3-dihydro-imidazo[4,5-c]quinolin-2-one] | 39 | – |
| CCNc1cc(-c2ccc3ncc4c(c3c2)n(-c2ccc(OCCOC)nc2C)c(=O)n4C)cnc1C [Example 13.4, 8-(5-Ethylamino-6-methyl-pyridin-3-yl)-1-[6-(2-methoxy-ethoxy)-2-methyl-pyridin-3-yl]-3-methyl-1,3-dihydro-imidazo[4,5-c]quinolin-2-one] | 13 | – |
| CNc1ccc(-c2ccc3ncc4c(c3c2)n(-c2cnc(F)cc2C)c(=O)n4C)cn1 [Example 16.4, 1-(6-Fluoro-4-methyl-pyridin-3-yl)-3-methyl-8-(6-methylamino-pyridin-3-yl)-1,3-dihydro-imidazo[4,5-c]quinolin-2-one] | 47 | – |
| Cc1nc(F)ccc1-n1c(=O)n(C)c2cnc3ccc(-c4cnc(N)c(CO)c4)cc3c21 [Example 7.17, 8-(6-Amino-5-hydroxymethyl-pyridin-3-yl)-1-(6-fluoro-2-methyl-pyridin-3-yl)-3-methyl-1,3-dihydro-imidazo[4,5-c]quinolin-2-one] | 64 | – |
| CNc1cc(-c2ccc3ncc4c(c3c2)n(-c2ccc(C(F)(F)F)nc2C)c(=O)n4C)cnc1CO [Example 33.2, 8-(6-Hydroxymethyl-5-methylamino-pyridin-3-yl)-3-methyl-1-(2-methyl-6-trifluoromethyl-pyridin-3-yl)-1,3-dihydro-imidazo[4,5-c]quinolin-2-one] | 15 | – |
| CCOc1ccc(-c2ccc3ncc4c(c3c2)n(-c2ccc(N(C)CCOC)nc2C)c(=O)n4C)cn1 [Example 15.3, 8-(6-Ethoxy-pyridin-3-yl)-1-{6-[(2-methoxy-ethyl)-methyl-amino]-2-methyl-pyridin-3-yl}-3-methyl-1,3-dihydro-imidazo[4,5-c]quinolin-2-one] | 103 | – |
| Cc1ccc(-n2c(=O)n(C)c3cnc4ccc(-c5cnc(N(C)C)nc5)cc4c32)c(C)n1 [Example 14.3, 8-(2-Dimethylamino-pyrimidin-5-yl)-1-(2,6-dimethyl-pyridin-3-yl)-3-methyl-1,3-dihydro-imidazo[4,5-c]quinolin-2-one] | 140 | – |
| CNc1ccc(-c2ccc3ncc4c(c3c2)n(-c2ccc(NC(=O)COC)nc2C)c(=O)n4C)cn1 [Example 20.4, 2-Methoxy-N-{6-methyl-5-[3-methyl-8-(6-methylamino-pyridin-3-yl)-2-oxo-2,3-dihydro-imidazo[4,5-c]quinolin-1-yl]-pyridin-2-yl}-acetamide] | 39 | – |
| COCC(=O)Nc1ccc(-n2c(=O)n(C)c3cnc4ccc(-c5cncc(OC(C)C)c5)cc4c32)c(C)n1 [Example 20.5, N-{5-[8-(5-Isopropoxy-pyridin-3-yl)-3-methyl-2-oxo-2,3-dihydro-imidazo[4,5-c]quinolin-1-yl]-6-methyl-pyridin-2-yl}-2-methoxy-acetamide] | 40 | – |
| CNc1cc(-c2ccc3ncc4c(c3c2)n(-c2ccc(F)nc2C)c(=O)n4C)cnc1CO [Example 7.11, 1-(6-Fluoro-2-methyl-pyridin-3-yl)-8-(6-hydroxymethyl-5-methylamino-pyridin-3-yl)-3-methyl-1,3-dihydro-imidazo[4,5-c]quinolin-2-one] | 17 | – |
| CNc1ccc(-c2ccc3ncc4c(c3c2)n(-c2ccc(N(C)CCOC)nc2C)c(=O)n4C)cn1 [Example 15.4, 1-{6-[(2-Methoxy-ethyl)-methyl-amino]-2-methyl-pyridin-3-yl}-3-methyl-8-(6-methylamino-pyridin-3-yl)-1,3-dihydro-imidazo[4,5-c]quinolin-2-one] | 46 | – |
